The values that follow come from patent US9453026B2, “ACC inhibitors and uses thereof” (Gilead Apollo, Inc., priority 2011, dated 2016).

The assay addresses ACC2 (Homo sapiens, UniProt O00763). The experiment in a line: In vitro ACC2 inhibition assay (ADP-Glo). Format: biochemical. The following applies: read-out: ACC2. How it is done: An exemplary procedure for the in vitro ACC inhibition assay, which can be used to determine the inhibitory action of compounds of the invention toward either ACC1 or ACC2, follows. The ADP-Glo™ Kinase Assay kit from Promega was used. The ADP-Glo™ Kinase Assay is a luminescent ADP detection assay to measure enzymatic activity by quantifying the amount of ADP produced during an enzyme reaction. The assay is performed in two steps; first, after the enzyme reaction, an equal volume of ADP-Glo™ Reagent is added to terminate the reaction and deplete the remaining ATP. Second, the Kinase Detection Reagent is added to simultaneously convert ADP to ATP and allow the newly synthesized ATP to be measured using a luciferase/luciferin reaction. Luminescence can be correlated to ADP concentrations by using an ATP-to-ADP conversion curve. The detailed procedure is as follows. 50 μL of the compound being tested (600 uM in DMSO) was added to a 384-well dilution plate. The compound was diluted 1:3 in succession in DMSO for each row for 11 wells. 0.5 μL ACC2 working solution was added to 384-well white Optiplate assay plate. 0.5 μL diluted compound solution in each column from step 2 to assay plate, each row containing 2 replicates. […] The plates were incubated at room temperature for 15 minutes. 5 μL substrate working solution was added to each well to initiate reaction. […] Plates were incubated at room temperature for 60 minutes. 10 μL ADP glo reagent was added. Plates were incubated at room temperature for 40 minutes. 20 μL kinase detection reagent was added.
Data for each concentration, as well as the positive and negative controls were averaged, and the standard deviation calculated. Percent inhibition was calculated by the formula: 100× (average negative control−compound)/(average negative control−average positive control). The IC50 for each compound was calculated by fitting the data with a non-linear regression equation: Y=Bottom+(Top-Bottom)/(1+10^((Log IC50−X)*HillSlope)), where X is the log of compound concentration and Y is percent inhibition.
The compound numbers correspond to the compound numbers in Table 1.
Background: In ADP-Glo the light output rises with the ADP produced.

Sequence of ACC2 (O00763 whole entry, species assumed): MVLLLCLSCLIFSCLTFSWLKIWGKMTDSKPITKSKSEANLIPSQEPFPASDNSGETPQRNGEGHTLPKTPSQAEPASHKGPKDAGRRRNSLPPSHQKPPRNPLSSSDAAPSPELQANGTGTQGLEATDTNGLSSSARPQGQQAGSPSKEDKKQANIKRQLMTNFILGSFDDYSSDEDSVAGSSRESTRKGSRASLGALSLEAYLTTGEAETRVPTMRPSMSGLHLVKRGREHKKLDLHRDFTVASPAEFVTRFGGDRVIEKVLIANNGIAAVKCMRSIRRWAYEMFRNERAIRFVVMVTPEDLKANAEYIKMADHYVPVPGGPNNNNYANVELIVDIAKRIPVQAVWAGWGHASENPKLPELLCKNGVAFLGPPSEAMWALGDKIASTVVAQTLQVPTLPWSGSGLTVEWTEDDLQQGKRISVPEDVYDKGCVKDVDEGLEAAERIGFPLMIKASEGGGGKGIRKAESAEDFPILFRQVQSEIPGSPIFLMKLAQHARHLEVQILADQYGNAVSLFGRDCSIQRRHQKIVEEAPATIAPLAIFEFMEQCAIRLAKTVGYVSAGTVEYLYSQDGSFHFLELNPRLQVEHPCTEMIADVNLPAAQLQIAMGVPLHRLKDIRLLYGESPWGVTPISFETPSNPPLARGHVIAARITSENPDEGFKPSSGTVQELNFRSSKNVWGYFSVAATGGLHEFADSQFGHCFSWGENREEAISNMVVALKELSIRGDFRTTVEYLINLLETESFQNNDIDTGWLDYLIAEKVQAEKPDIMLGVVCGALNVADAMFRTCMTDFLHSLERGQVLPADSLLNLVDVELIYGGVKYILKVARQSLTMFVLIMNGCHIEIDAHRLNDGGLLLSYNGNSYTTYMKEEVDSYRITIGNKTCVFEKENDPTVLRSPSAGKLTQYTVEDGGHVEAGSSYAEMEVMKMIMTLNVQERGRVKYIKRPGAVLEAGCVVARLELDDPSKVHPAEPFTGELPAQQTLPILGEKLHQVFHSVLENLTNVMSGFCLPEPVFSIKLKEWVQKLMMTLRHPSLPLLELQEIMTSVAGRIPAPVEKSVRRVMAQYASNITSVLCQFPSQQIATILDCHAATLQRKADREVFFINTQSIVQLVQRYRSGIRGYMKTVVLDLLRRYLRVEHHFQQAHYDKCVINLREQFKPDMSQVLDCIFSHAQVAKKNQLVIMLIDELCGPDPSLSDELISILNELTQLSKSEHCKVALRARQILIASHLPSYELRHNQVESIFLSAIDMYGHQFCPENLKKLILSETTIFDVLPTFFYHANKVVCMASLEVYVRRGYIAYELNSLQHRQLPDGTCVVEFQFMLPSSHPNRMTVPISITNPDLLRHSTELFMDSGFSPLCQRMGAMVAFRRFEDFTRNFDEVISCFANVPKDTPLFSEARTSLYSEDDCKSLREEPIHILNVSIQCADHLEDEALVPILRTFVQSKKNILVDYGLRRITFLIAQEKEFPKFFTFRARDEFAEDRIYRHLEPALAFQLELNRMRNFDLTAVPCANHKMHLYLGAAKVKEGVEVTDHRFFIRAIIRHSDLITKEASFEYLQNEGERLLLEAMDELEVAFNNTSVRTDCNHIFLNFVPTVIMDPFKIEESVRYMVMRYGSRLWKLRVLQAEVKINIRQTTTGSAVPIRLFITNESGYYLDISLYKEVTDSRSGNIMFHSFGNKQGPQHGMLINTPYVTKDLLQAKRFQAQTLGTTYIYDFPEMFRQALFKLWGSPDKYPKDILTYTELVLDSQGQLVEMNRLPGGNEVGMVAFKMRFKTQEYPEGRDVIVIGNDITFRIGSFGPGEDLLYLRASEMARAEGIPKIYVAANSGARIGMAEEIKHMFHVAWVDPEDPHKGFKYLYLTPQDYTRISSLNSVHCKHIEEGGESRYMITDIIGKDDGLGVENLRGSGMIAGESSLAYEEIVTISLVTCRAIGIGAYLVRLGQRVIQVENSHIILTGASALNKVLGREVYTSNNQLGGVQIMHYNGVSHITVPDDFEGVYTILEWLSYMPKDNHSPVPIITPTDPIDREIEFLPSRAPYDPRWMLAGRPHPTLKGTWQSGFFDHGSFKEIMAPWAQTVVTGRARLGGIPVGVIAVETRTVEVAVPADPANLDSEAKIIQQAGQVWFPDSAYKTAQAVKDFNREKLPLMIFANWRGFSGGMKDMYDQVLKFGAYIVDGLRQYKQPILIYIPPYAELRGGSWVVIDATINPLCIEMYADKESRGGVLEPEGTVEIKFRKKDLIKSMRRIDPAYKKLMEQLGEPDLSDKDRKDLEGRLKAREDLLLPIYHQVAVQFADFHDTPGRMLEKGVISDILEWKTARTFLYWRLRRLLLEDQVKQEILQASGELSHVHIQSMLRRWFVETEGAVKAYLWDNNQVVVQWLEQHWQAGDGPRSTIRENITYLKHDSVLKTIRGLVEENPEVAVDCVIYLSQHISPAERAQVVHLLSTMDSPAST

On to `CCOC(=O)c1sc2c(c1C)c(=O)n(C(C)(C)C(=O)O)c(=O)n2CC(O)c1ccccc1` (stereo in doubt) [I-103, 2-[6-(ethoxycarbonyl)-1-[(2S)-2-hydroxy-2-phenylethyl]-5-methyl-2,4-dioxo-1H,2H,3H,4H-thieno[2,3-d]pyrimidin-3-yl]-2-methylpropanoic acid], for which the IC50 is less than 1 µM.
`CCOC(=O)c1sc2c(c1C)c(=O)n(CC(=O)O)c(=O)n2CC(OC)c1ccccc1` (stereo in doubt) [I-105, 2-[6-(ethoxycarbonyl)-1-[(2S)-2-methoxy-2-phenylethyl]-5-methyl-2,4-dioxo-1H,2H,3H,4H-thieno[2,3-d]pyrimidin-3-yl]acetic acid]: the IC50 is less than 1 µM.
In the case of `O=C(O)Cn1c(=O)c2c3c(sc2n(CC(=O)c2ccccc2)c1=O)CCCC3` [I-2], the IC50 is greater than 50 µM.
In the case of `O=C(O)Cn1c(=O)c2c3c(sc2n(CCc2ccccc2)c1=O)CCCC3` [I-3], the IC50 fell in the range of 20 to 50 µM.
As for `O=C(O)Cn1c(=O)c2c3c(sc2n(CCc2ccccc2)c1=O)CCC3` [I-4], the IC50 was in the range of 20 to 50 µM.
With `Cc1c(C(=O)O)sc2c1c(=O)n(CCO)c(=O)n2CCc1ccccc1` [I-5], the IC50 was greater than 50 µM.
For the compound `CCOC(=O)c1sc2c(c1C)c(=O)n(CCOC)c(=O)n2CCc1ccccc1` [I-6, ethyl 3-(2-methoxyethyl)-5-methyl-2,4-dioxo-1-(2-phenylethyl)-1H,2H,3H,4H-thieno[2,3-d]pyrimidine-6-carboxylate], the IC50 lay in the range of 20 to 50 µM.
Regarding `CCOC(=O)c1sc2c(c1C)c(=O)n(CC)c(=O)n2CCc1ccccc1` [I-7, ethyl 3-ethyl-5-methyl-2,4-dioxo-1-(2-phenylethyl)-1H,2H,3H,4H-thieno[2,3-d]pyrimidine-6-carboxylate], the IC50 is greater than 50 µM.
The figure for `CCOC(=O)c1sc2c(c1C)c(=O)n(CC(=O)OC(C)(C)C)c(=O)n2CCc1ccccc1` [I-8] is 5 to 20 µM; for `CCCn1c(=O)c2c(C)c(C(=O)OCC)sc2n(CCc2ccccc2)c1=O` [I-9, ethyl 5-methyl-2,4-dioxo-1-(2-phenylethyl)-3-propyl-1H,2H,3H,4H-thieno[2,3-d]pyrimidine-6-carboxylate] it is greater than 50 µM; for `CCOC(=O)c1sc2c(c1C)c(=O)n(CCOCc1ccccc1)c(=O)n2CCc1ccccc1` [I-10, ethyl 3-[2-(benzyloxy)ethyl]-5-methyl-2,4-dioxo-1-(2-phenylethyl)-1H,2H,3H,4H-thieno[2,3-d]pyrimidine-6-carboxylate] it is greater than 50 µM.
On to `CCOC(=O)c1sc2c(c1C)c(=O)n(CCO)c(=O)n2CC` [I-11, ethyl 1-ethyl-3-(2-hydroxyethyl)-5-methyl-2,4-dioxo-1H,2H,3H,4H-thieno[2,3-d]pyrimidine-6-carboxylate], for which the IC50 was greater than 50 µM.
Take `CCOC(=O)c1sc2c(c1C)c(=O)n(CCO)c(=O)n2CCCc1ccccc1` [I-12]: the IC50 was greater than 50 µM.
Turning to `CCOC(=O)c1sc2c(c1C)c(=O)n(CCO)c(=O)n2Cc1cccc2ccccc12` [I-15], the IC50 is greater than 50 µM.
`CCOC(=O)c1sc2c(c1C)c(=O)n(CCO)c(=O)n2Cc1ccc2ccccc2c1` [I-16, ethyl 3-(2-hydroxyethyl)-5-methyl-1-(naphthalen-2-ylmethyl)-2,4-dioxo-1H,2H,3H,4H-thieno[2,3-d]pyrimidine-6-carboxylate]: the IC50 is greater than 50 µM.
For `CCOC(=O)c1sc2c(c1C)c(=O)n(CCO)c(=O)n2CCc1ccc(Cl)cc1` [I-17], the IC50 was greater than 50 µM.
On to `CCNC(=O)c1sc2c(c1C)c(=O)n(CCO)c(=O)n2CCc1ccccc1` [I-18], for which the IC50 was greater than 50 µM.
As for `CCOC(=O)c1sc2c(c1C)c(=O)n(CCO)c(=O)n2CCc1cccc(Cl)c1` [I-21], the IC50 was greater than 50 µM.
For the compound `CCOC(=O)c1sc2c(c1C)c(=O)n(CCO)c(=O)n2CCc1cccc2ccccc12` [I-22], the IC50 was greater than 50 µM.
Consider `CCOC(=O)c1sc2c(c1C)c(=O)n(CCO)c(=O)n2CCc1ccccc1F` [I-23, ethyl 1-[2-(2-fluorophenyl)ethyl]-3-(2-hydroxyethyl)-5-methyl-2,4-dioxo-1H,2H,3H,4H-thieno[2,3-d]pyrimidine-6-carboxylate], for which the IC50 fell in the range of 20 to 50 µM.
